The target of the assay is T1, 5-hydroxytryptamine receptor 2C (Homo sapiens, UniProt P28335).
T1 sequence (P28335 whole entry): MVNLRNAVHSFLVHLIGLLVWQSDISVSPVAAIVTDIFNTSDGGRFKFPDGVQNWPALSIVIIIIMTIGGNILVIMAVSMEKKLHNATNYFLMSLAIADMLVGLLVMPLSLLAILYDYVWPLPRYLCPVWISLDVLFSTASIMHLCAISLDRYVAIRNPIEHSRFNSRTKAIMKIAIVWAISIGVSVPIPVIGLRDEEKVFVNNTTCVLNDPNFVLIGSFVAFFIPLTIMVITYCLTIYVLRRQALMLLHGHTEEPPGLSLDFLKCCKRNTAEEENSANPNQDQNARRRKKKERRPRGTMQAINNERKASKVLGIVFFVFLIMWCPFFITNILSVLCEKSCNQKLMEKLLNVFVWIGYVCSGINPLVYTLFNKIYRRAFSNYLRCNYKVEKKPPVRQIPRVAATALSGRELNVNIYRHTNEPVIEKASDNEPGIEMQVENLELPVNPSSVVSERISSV
As to the kind of experiment: Agonist activity at human 5HT2C receptor expressed in HEK293 cells assessed as calcium flux measured every sec for 3 mins by FLIPR assay. Background: Calcium assays in cells follow changes in intracellular calcium, usually with a dye or a luminescent sensor.

The EC50 is the concentration that produces a half-maximal response.

As for `NC[C@H]1C[C@@H]1c1ccccc1OCC1CC1`, the EC50 stood at 120 nM.

Source of the values: BindingDB's records for doi:10.1021/ml200206z (2011).
